# Measurements as given in article PMC5264272 (EBioMedicine, 2016).
# Columns and labels:
# murine Treg cells = test: Treg suppression assay with Tregs pre-treated in vitro; assay type: cell-based; details: 10 μM, 2 h pre-treatment of Tregs, washing, 3-day suppression assay
# [1] = system: human multiple myeloma cells; details: immunodeficient mice; ref Chauhan et al., 2012; cited from earlier work
smiles,measurement,setting,value
CC(=O)c1cc([N+](=O)[O-])c(Sc2cccc(Cl)c2Cl)s1 [P5091],effect on murine Treg function in vitro,murine Treg cells,almost completely abrogated Treg function
same,growth of human multiple myeloma cells as xenografts,[1],direct effects on the growth
